Series [1] has as its system HDACs (HeLa cell nuclear extracts). As to the kind of experiment: HDAC enzymatic activity, Biomol Color de Lys system. Format: biochemical. The gist of the method:
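HeLa nuclear extract as HDAC source with Color de Lys substrate in 50 mM Tris/Cl pH 8.0, 137 mM NaCl, 2.7 mM KCl, 1 mM MgCl2. Serially diluted compounds reacted 1 h at 25 °C, then developer added; fluorescence (Ex 350–380/Em 440–460) fitted sigmoidally for IC50.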

In the next series the test system is A375 cells. As to the kind of experiment: Cell proliferation assay Method B, A375. The class given is cell-based. The following applies: Homo sapiens, A-375; Melanoma; Method B; 72 hours; read-out: antiproliferative activity IC50, A375. On the procedure:
(§1) Cancer cell lines were plated at 5,000 to 10,000 per well in 96-well flat bottomed plates with various concentration of compounds. The cells were incubated with compounds for 72 hours in the presence of 0.5% of fetal bovine serum. Growth inhibition was accessed by adenosine triphosphate (ATP) content assay using Promega CellTiter-Glo kit. Promega CellTiter-Glo kit is an ATP monitoring system based on firefly luciferase. Briefly, 16 μl of mammalian cell lysis and substrate solution was added to 84 μl of culture medium per well to lyse the cells and stabilize the ATP. The mixture was shaken and incubated for 30 minutes and subsequently the luminescence was measured.

The test system of a further series is MDA-MB-436 cells. Description: Cell proliferation assay Method B, MDA-MB-436. Particulars: Homo sapiens, Breast, Method B, 72 hours, read-out: antiproliferative activity IC50, MDA-MB-436. Format: cell-based. On the procedure: as §1
In series [2] the test system is H1993 cells. As to the kind of experiment: Cell proliferation assay Method A (ATPlite), H1993. The class given is cell-based. The following applies: Homo sapiens, NCI-H1993, 72 hours, read-out: antiproliferative activity IC50, H1993. On the procedure: (§2) Cancer cell lines were plated at 5,000 to 10,000 per well in 96-well flat bottomed plates with various concentration of compounds. The cells were incubated with compounds for 72 hours in the presence of 0.5% of fetal bovine serum. Growth inhibition was accessed by adenosine triphosphate (ATP) content assay using Perkin Elmer ATPlite kit. ATPlite is an ATP monitoring system based on firefly luciferase. Briefly, 25 μl of mammalian cell lysis solution was added to 50 μl of phenol red-free culture medium per well to lyse the cells and stabilize the ATP. 25 μl of substrate solution was then added to the well and subsequently the luminescence was measured.

The next series has as its system BT-474 cells. As to the kind of experiment: Cell proliferation assay Method A (ATPlite), BT-474. Format: cell-based. The following applies: Homo sapiens, 72 hours, read-out: antiproliferative activity IC50, BT-474. On the procedure: as §2
Series [3] relates to Sk-Mel-28 cells. Description: Cell proliferation assay Method A (ATPlite), Sk-Mel-28. The class given is cell-based. Particulars: Homo sapiens, 72 hours, read-out: antiproliferative activity IC50, Sk-Mel-28. On the procedure: as §2
Series [4] deals with Sk-Mel-28 cells. As to the kind of experiment: Cell proliferation assay Method B, Sk-Mel-28. Format: cell-based. Particulars: Homo sapiens, Melanoma, 72 hours, read-out: antiproliferative activity IC50, Sk-Mel-28. On the procedure: as §1
A further series concerns BT474 cells. As to the kind of experiment: Cell proliferation assay Method B, BT474. The following applies: Homo sapiens, BT-474, 72 hours, read-out: antiproliferative activity IC50, BT474. Format: cell-based. On the procedure:
as §1

Another series relates to HCC1937 cells. Description: Cell proliferation assay Method B, HCC1937. The class given is cell-based. The following applies: Homo sapiens, 72 hours, read-out: antiproliferative activity IC50, HCC1937. On the procedure:
as §1

The subject of a further series is HCT-118 cells. Description: Cell proliferation assay Method A (ATPlite), HCT-118. The class given is cell-based. The following applies: 72 hours, read-out: antiproliferative activity IC50, HCT-118. On the procedure:
as §2

Another series has as its system MDA-MB-468 cells. As to the kind of experiment: Cell proliferation assay Method B, MDA-MB-468. Particulars: Homo sapiens, 72 hours, read-out: antiproliferative activity IC50, MDA-MB-468. The class given is cell-based. On the procedure: as §1
The test system of series [5] is H1993 cells. As to the kind of experiment: Cell proliferation assay Method B, H1993. The class given is cell-based. The following applies: Homo sapiens, NCI-H1993, NSCLC, 72 hours, read-out: antiproliferative activity IC50, H1993. On the procedure:
as §1

The next series relates to U87MG cells. As to the kind of experiment: Cell proliferation assay Method B, U87MG. Format: cell-based. Particulars: Homo sapiens, U-87 MG, Glioblastoma, 72 hours, read-out: antiproliferative activity IC50, U87MG. On the procedure:
as §1

The test system of a further series is H1975 cells. As to the kind of experiment: Cell proliferation assay Method B, H1975. Particulars: Homo sapiens, NCI-H1975, NSCLC, 72 hours, read-out: antiproliferative activity IC50, H1975. The class given is cell-based. On the procedure:
as §1

The test system of a further series is RPMI-8226 cells. As to the kind of experiment: Cell proliferation assay Method B, RPMI-8226. The class given is cell-based. The following applies: Homo sapiens, Multiple Myeloma, 72 hours, read-out: antiproliferative activity IC50, RPMI-8226. On the procedure:
as §1

Setting [6] is: Sk-Mel-28, 0.5% fetal bovine serum, CellTiter-Glo.
Setting [7] is: 0.5% fetal bovine serum, CellTiter-Glo.
[8] abbreviates: BT474, 0.5% fetal bovine serum, CellTiter-Glo.
The mark [9] stands for this setting: H1993, 0.5% fetal bovine serum, CellTiter-Glo.

Molecules are shown by their SMILES. Like-named read-outs stand apart in the source and are kept apart here.

Molecule `CN(Cc1cc2nc(-c3cccc(CO)c3)nc(N3CCOCC3)c2s1)c1ncc(C(=O)NO)cn1` [Compound 138, N-hydroxy-2-(((2-(3-(hydroxymethyl)phenyl)-4-morpholinothieno[3,2-d]pyrimidin-6-yl)methyl)(methyl)amino)pyrimidine-5-carboxamide] displayed a melting point of 160 to 164 °C. In series [1], this molecule returned an IC50 below 100 nM. The IC50 in the series with A375 cells fell in the range of 10 to 100 nM. Also, the 50% inhibitory concentration (IC50) in the series with MDA-MB-436 cells was 10 to 100 nM. The IC50 in the series with H1993 cells [2] is below 100 nM. Also, the IC50 in the series with BT-474 cells is below 100 nM. Moreover, the IC50 in the series on Sk-Mel-28 cells [3] was below 100 nM. In the series on Sk-Mel-28 cells [4] (SK-MEL-28, Method B), the IC50 fell in the range of 10 to 100 nM. In addition, in the series with BT474 cells (Breast, Method B), the IC50 was below 10 nM. The IC50 in the series with HCC1937 cells (Breast, Method B) was in the range of 10 to 100 nM. Further, in the series on HCT-118 cells, the IC50 was below 100 nM. The IC50 in the series on MDA-MB-468 cells (Breast, Method B) is 10 to 100 nM. The half-inhibitory concentration (IC50) in the series with H1993 cells [5] (Method B) was 10 to 100 nM. The IC50 in the series on U87MG cells (Method B) was below 10 nM. Further, the IC50 in the series with H1975 cells (Method B) was in the range of 10 to 100 nM.
As to `CN(Cc1cc2nc(-c3cc(O)ccc3F)nc(N3CCOCC3)c2s1)c1ncc(C(=O)NO)cn1` [Compound 292, 2-(((2-(2-Fluoro-5-hydroxyphenyl)-4-morpholinothieno[3,2-d]pyrimidin-6-yl)methyl)(methyl)amino)-N-hydroxypyrimidine-5-carboxamide], the melting point is 250 to 255 °C. In [1], this molecule gave an IC50 below 100 nM. Further, the IC50 in the series with A375 cells was below 10 nM.
With `Cc1ncc(-c2nc(N3CCOCC3)c3sc(CN(C)c4ncc(C(=O)NO)cn4)cc3n2)cn1` [Compound 120, N-hydroxy-2-(methyl((2-(2-methylpyrimidin-5-yl)-4-morpholinothieno[3,2-d]pyrimidin-6-yl)methyl)amino)pyrimidine-5-carboxamide], the melting point was 184 to 186 °C. In addition, the IC50 in series [1] is below 100 nM. Also, in the series on A375 cells, the IC50 was 10 to 100 nM. The IC50 with MDA-MB-436 cells was 10 to 100 nM. Besides, the IC50 in the series on Sk-Mel-28 cells [4] (SK-MEL-28, Method B) is 10 to 100 nM. Moreover, the IC50 with BT474 cells (Breast, Method B) lay within 10 to 100 nM. Further, the IC50 in the series with HCC1937 cells (Breast, Method B) fell in the range of 10 to 100 nM. The IC50 with MDA-MB-468 cells (Breast, Method B) was in the range of 10 to 100 nM. Besides, the IC50 in the series on H1993 cells [5] (Method B) was 10 to 100 nM. For the same molecule, the IC50 with U87MG cells (Method B) lay within 10 to 100 nM. Moreover, the IC50 in the series on H1975 cells (Method B) fell in the range of 10 to 100 nM. Also, the IC50 in the series on RPMI-8226 cells (Method B) was below 10 nM.
For the molecule `CN(Cc1cc2nc(-c3cccc(OCCO)c3)nc(N3CCOCC3)c2s1)c1ncc(C(=O)NO)cn1` [Compound 289, 2-({2-[3-(2-Hydroxy-ethoxy)-phenyl]-4-morpholin-4-yl-thieno[3,2-d]pyrimidin-6-ylmethyl}-methyl-amino)-pyrimidine-5-carboxylic acid hydroxyamide], the melting point fell in the range of 148 to 152 °C. Moreover, the IC50 in series [1] is below 100 nM. For the same molecule, the IC50 in the series on Sk-Mel-28 cells [4] (setting [6]) was below 10 nM. In addition, the IC50 with RPMI-8226 cells (setting [7]) is below 10 nM.
In turn, `Cc1nc(N)ncc1-c1nc(N2CCOCC2)c2sc(CN(C)c3ncc(C(=O)NO)cn3)cc2n1` [Compound 125, 2-(((2-(2-amino-4-methylpyrimidin-5-yl)-4-morpholinothieno[3,2-d]pyrimidin-6-yl)methyl)(methyl)amino)-N-hydroxypyrimidine-5-carboxamide] yielded a melting point of 195 to 198 °C. Moreover, the IC50 in [1] was below 100 nM. Also, in the series on H1993 cells [2], the IC50 was 100 to 1000 nM. In the series on BT-474 cells, the IC50 was below 100 nM. Besides, the IC50 in the series with Sk-Mel-28 cells [3] fell in the range of 100 to 1000 nM. Moreover, the IC50 with Sk-Mel-28 cells [4] (setting [6]) was 100 to 1000 nM. Also, in the series on BT474 cells (setting [8]), the IC50 was 10 to 100 nM. Moreover, the IC50 in the series with HCT-118 cells was below 100 nM. For the same molecule, the half-maximal inhibitory concentration (IC50) in the series on H1993 cells [5] (setting [9]) was in the range of 100 to 1000 nM.
`CNc1ncc(-c2nc(N3CCOCC3)c3sc(CN(C)c4ncc(C(=O)NO)cn4)cc3n2)cn1` [Compound 116, N-hydroxy-2-(methyl((2-(2-(methylamino)pyrimidin-5-yl)-4-morpholinothieno[3,2-d]pyrimidin-6-yl)methyl)amino)pyrimidine-5-carboxamide] came in with a melting point of 183 to 187 °C. This molecule also came in with an IC50 in series [1] below 100 nM. Further, the IC50 with A375 cells is 10 to 100 nM. For the same molecule, the IC50 with MDA-MB-436 cells is 10 to 100 nM. The IC50 with H1993 cells [2] was below 100 nM. Also, in the series with BT-474 cells, the IC50 is below 100 nM. In addition, the IC50 with Sk-Mel-28 cells [3] was below 100 nM. The IC50 in the series with Sk-Mel-28 cells [4] (SK-MEL-28, Method B) was below 10 nM. The IC50 with BT474 cells (Breast, Method B) was in the range of 10 to 100 nM. Further, the IC50 in the series with HCC1937 cells (Breast, Method B) was in the range of 10 to 100 nM. The IC50 in the series with HCT-118 cells is below 100 nM. For the same molecule, the IC50 in the series with MDA-MB-468 cells (Breast, Method B) is 10 to 100 nM. The IC50 in the series on H1993 cells [5] (Method B) is 10 to 100 nM. For the same molecule, in the series with U87MG cells (Method B), the IC50 lay in the range of 10 to 100 nM. Also, in the series on H1975 cells (Method B), the IC50 was 10 to 100 nM. Moreover, the IC50 with RPMI-8226 cells (Method B) is below 10 nM.
`CN(Cc1cc2nc(-c3cccc4[nH]ncc34)nc(N3CCOCC3)c2s1)c1ncc(C(=O)NO)cn1` [Compound 54, 2-(((2-(1H-indazol-4-yl)-4-morpholinothieno[3,2-d]pyrimidin-6-yl)methyl)(methyl)amino)-N-hydroxypyrimidine-5-carboxamide] yielded a melting point of 197 to 200 °C. Moreover, the IC50 in series [1] is below 100 nM. In addition, the IC50 with H1993 cells [2] is below 100 nM. Moreover, in the series on BT-474 cells, the IC50 was below 100 nM. For the same molecule, the IC50 in the series with Sk-Mel-28 cells [3] was below 100 nM. The IC50 with Sk-Mel-28 cells [4] (setting [6]) was 10 to 100 nM. Further, in the series with BT474 cells (setting [8]), the IC50 was below 10 nM. In addition, in the series with HCC1937 cells (setting [7]), the IC50 fell in the range of 10 to 100 nM. Besides, the IC50 with HCT-118 cells was below 100 nM. For the same molecule, the IC50 in the series on MDA-MB-468 cells (setting [7]) is below 10 nM. The IC50 in the series on H1993 cells [5] (setting [9]) lay within 10 to 100 nM. Besides, the IC50 with U87MG cells (U87MG, 0.5% fetal bovine serum, CellTiter-Glo) is 10 to 100 nM. The IC50 with H1975 cells (H1975, 0.5% fetal bovine serum, CellTiter-Glo) fell in the range of 10 to 100 nM.
Regarding `CC(O)c1cccc(-c2nc(N3CCOCC3)c3sc(CN(C)c4ncc(C(=O)NO)cn4)cc3n2)c1` (stereo not drawn) [Compound 294, N-Hydroxy-2-(((2-(3-(1-hydroxyethyl)phenyl)-4-morpholinothieno[3,2-d]pyrimidin-6-yl)methyl)(methyl)amino)pyrimidine-5-carboxamide], the IC50 in [1] is below 100 nM; with Sk-Mel-28 cells [4] (setting [6]), below 10 nM; in the series with RPMI-8226 cells (setting [7]), below 10 nM.

The values above are taken from patent US8906909B2 (Curis, Inc., priority 2009, dated 2014).
